In data set [1] the test system is rice blast fungus (Pyricularia oryzae). The data set can be described thus: whole plant or invertebrate. It is filed as in vivo. The following applies: 168 h, read-out: Protective Value.
The test system is the same in data set [2]. The data set is classed as in vivo. To be noted: low dosage; for Protective Value: 100 ppm; for controlling effect against rice blast: Table 4.
Data set [3] concerns Pyricularia oryzae. To be noted: Bokin Bobai, Vol. 9, No. 12, pages 551 to 561 (1981); cited from earlier work.
The subject of data set [4] is influenza virus, Adachi strain of A2-type. As to the kind of experiment: microbe, parasite or virus in culture. The data set is classed as cell-based. The following applies: for virucidal index: 50% toxicity concentration / 50% virucidal concentration; for EC50: 2 h, read-out: 50% Virucidal Concentration.
For data set [5] the test system is unchanged. As to the kind of experiment: microbe, parasite or virus in culture. To be noted: for virus proliferation-inhibiting index: 50% toxicity concentration / 50% virus proliferation-inhibiting concentration, 2880 min; for IC50: 48 h, read-out: 50% Virus Proliferation-Inhibiting Concentration. It is filed as cell-based.
Data set [6] can be described thus: acute toxicity (LD50) by intraperitoneal administration to mice. The following applies: mouse, in vivo, ip. From the text: In evaluating acute toxicity (LD50 value) of the compounds of this invention, compound number 4 and compound number 25 of Table 1, respectively, were selected and examined for their acute toxicities by intraperitoneal administration to mice.

Data set [7] in a line: in vitro. To be noted: chicken, chorioallantoic membrane.
The subject of data set [8] is plant pathogenic fungi. To be noted: foregoing literature; cited from earlier work.

In brackets after ≈: the same amount, converted by molar mass. Entries after “also recorded” stand apart in the source; their conditions may differ. Some results are limits rather than exact numbers.

The LD50 is the dose at which mortality reaches 50%. Read a high LD50 as lower toxicity.

For `CSC(=N)NN=C(C)c1ccc(Cl)c(Cl)c1` [Compound 30], the pest or weed control at 400 ppm in data set [1] was determined as 88%. Also, in data set [2], the “Protective Value” is recorded as 66% and the “controlling effect against rice blast” value is given as “low protective values”. Further, the “MIC Value in Literature” value in data set [3] was 12.5 µg/mL (≈ 45.3 µM).

With `CSC(=N)NN=Cc1cccc(Cl)c1` [Compound 4], in data set [4], the virucidal index is 5.7 and the EC50 stood at 175 µg/mL (≈ 768 µM). In data set [5], the virus proliferation-inhibiting index is listed as above 54.0 and the IC50 was determined as 18.5 µg/mL (≈ 81.2 µM). In data set [6], this compound yielded an LD50 of 200 mg/kg. Also, the pest or weed control at 400 ppm in data set [1] was 100%. This compound registered a CC50 at 48 h in data set [7] above 1000 µg/mL.

Turning to `CSC(=N)NN=C(C)c1ccc(Cl)cc1` [Compound 25], in data set [4], the virucidal index stood at 1.7 and the EC50 came to 215 µg/mL (≈ 889 µM). In data set [5], the virus proliferation-inhibiting index is on record as 24.6 and the IC50 stood at 14.4 µg/mL (≈ 59.6 µM). For the same compound, in data set [6], the LD50 is 150 mg/kg. In data set [1], the pest or weed control at 400 ppm amounted to 100%. In data set [7], this compound showed a CC50 at 48 h of 354 µg/mL (≈ 1470 µM).

As to `CN=C(NN=Cc1ccc(Cl)c(Cl)c1)SC` [Compound 10], in data set [1], the pest or weed control at 400 ppm stood at 88%. Besides, in data set [2], the “Protective Value” came to 67% and the “controlling effect against rice blast” value is “low protective values”. For the same compound, in data set [3], the “MIC Value in Literature” value was 12.5 µg/mL (≈ 45.3 µM).

Regarding `CCOc1ccc(C=CC(C)=NNC(=N)SC)cc1` [Compound 43], in data set [4], the virucidal index is given as 3.2 and the EC50 came out at 316 µg/mL (≈ 1140 µM). In data set [5], the virus proliferation-inhibiting index came to 7.1 and the IC50 stood at 141 µg/mL (≈ 508 µM). The pest or weed control at 400 ppm in data set [1] turned out to be 100%. Also, in data set [2], the “Protective Value” came out at 97% and the “controlling effect against rice blast” value is “very excellent controlling effects”. In addition, the “effect against plant pathogenic fungi in vitro” value in data set [8] was “never been observed to have effects of inhibiting proliferation of any of the pathogenic fungi; also recorded: inactive against all of the plant pathogenic fungi”. In addition, the CC50 at 48 h in data set [7] was above 1000 µg/mL.

(Values after patent US4598095A (priority 1982, dated 1986).)
